Tests used:
[1] = target: T1, mGluR5 receptor (Sus scrofa, UniProt I3LUI7); experiment: Affinity for the mGluR5 receptor ([3H]-MPEP binding, pig brain homogenate); conditions: 10 μM compound, 15 nM [3H]-MPEP
T1 construct: 450 μg of protein from brain homogenate is incubated; from tissue; host or cells: pig brain hemispheres without medulla, cerebellum and pons
Protocol: III. Method for Determining Affinity for the mGluR5 Receptor
Pig brain homogenate is produced by homogenisation (Polytron Pt 3000, Kinematica AG, 10,000 rpm (revolutions per minute) for 90 seconds) of pig brain hemispheres without medulla, cerebellum and pons in a buffer of pH 8.0 (30 mM Hepes, Sigma, order number H3375+1 tablet Complete Roche Diagnostics, order number 1836145 made up to 100 ml) in a ratio of 1:20 (brain weight/volume) and differential centrifugation at 900 g and 40,000 g. 450 μg of protein from brain homogenate is incubated in each case in 250 μl incubation batches in 96-well microtitre plates with 15 nM ^3[H]-MPEP (Tocris, order number R1212) and the compounds to be investigated (in each case 10 μM in the test) in the above-stated buffer at room temperature for 60 minutes.
The batches are then filtered with the assistance of a Brandel Cell Harvester (Brandel, Grade Robotic 9600) on Unifilter plates with glass filter mats (Perkin Elmer, order number 6005177) and then rewashed 3 times with buffer of the above-stated composition using 250 μl per sample. The filter plates are then dried for 60 minutes at 55° C. Then 30 μl of Ultima Gold scintillating material (Packard BioScience, order number 6013159) is added per well and after 3 hours the samples are measured using the B counter ([…], Perkin Elmer). Nonspecific binding is determined by the addition of 10 μM 2-methyl-6-(phenylethynyl)-pyridine (Tocris, order number 1212).

[2] = target: T2, 5-HT transporter (Rattus norvegicus, UniProt P31652); experiment: 5-HT uptake inhibition in rat brain synaptosomes (medulla and pons); assay type: biochemical
T2 construct: from tissue; host or cells: rat medulla and pons synaptosomes (P2 fraction)
Outline: (§1)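 Freshly isolated P2 synaptosomes from rat hypothalamus (noradrenalin) or medulla and pons (5-HT) incubated at room temperature under O2 with [3H]-NA for 7.5 min or [3H]-5-HT for 5 min. Uptake measured by filtration and scintillation counting.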

[3] = target: T3, NA transporter (Rattus norvegicus, UniProt Q63380); experiment: Noradrenalin uptake inhibition in rat brain synaptosomes (hypothalamus); assay type: biochemical
T3 construct: from tissue; host or cells: rat hypothalamus synaptosomes (P2 fraction)
Outline: as §1

T2 sequence (P31652 whole entry): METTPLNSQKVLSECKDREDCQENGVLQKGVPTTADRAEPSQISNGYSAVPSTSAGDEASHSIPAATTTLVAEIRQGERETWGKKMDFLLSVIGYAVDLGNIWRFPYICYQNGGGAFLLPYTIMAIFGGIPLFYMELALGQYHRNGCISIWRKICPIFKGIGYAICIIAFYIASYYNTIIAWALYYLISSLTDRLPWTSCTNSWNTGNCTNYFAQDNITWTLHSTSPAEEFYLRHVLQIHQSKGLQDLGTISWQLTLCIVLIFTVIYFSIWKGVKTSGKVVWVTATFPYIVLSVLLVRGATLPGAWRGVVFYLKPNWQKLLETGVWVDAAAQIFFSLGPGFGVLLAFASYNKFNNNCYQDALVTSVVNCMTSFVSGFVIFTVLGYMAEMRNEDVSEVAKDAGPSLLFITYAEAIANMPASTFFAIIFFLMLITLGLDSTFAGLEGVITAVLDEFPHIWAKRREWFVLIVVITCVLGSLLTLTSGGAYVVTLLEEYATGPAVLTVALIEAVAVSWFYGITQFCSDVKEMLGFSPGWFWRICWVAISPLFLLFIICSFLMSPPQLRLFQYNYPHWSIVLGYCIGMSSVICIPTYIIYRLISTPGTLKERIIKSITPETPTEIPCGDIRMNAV
T3 sequence (Q63380 1-617): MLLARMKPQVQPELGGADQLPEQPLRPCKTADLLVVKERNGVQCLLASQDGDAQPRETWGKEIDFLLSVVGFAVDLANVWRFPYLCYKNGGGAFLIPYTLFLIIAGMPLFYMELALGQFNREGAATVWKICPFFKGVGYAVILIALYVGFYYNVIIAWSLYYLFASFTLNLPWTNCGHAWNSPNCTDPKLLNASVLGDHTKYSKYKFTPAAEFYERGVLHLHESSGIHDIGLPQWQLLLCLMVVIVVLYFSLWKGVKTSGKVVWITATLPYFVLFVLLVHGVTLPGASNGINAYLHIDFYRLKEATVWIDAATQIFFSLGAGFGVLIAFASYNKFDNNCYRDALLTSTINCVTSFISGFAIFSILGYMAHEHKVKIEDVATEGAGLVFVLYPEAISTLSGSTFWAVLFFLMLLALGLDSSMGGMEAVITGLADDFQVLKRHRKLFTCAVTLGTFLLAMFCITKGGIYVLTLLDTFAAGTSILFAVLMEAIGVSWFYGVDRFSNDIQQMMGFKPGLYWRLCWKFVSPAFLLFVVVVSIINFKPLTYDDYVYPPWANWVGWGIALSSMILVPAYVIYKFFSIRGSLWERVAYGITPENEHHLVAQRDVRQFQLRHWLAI
T1 sequence (I3LUI7 19-1212): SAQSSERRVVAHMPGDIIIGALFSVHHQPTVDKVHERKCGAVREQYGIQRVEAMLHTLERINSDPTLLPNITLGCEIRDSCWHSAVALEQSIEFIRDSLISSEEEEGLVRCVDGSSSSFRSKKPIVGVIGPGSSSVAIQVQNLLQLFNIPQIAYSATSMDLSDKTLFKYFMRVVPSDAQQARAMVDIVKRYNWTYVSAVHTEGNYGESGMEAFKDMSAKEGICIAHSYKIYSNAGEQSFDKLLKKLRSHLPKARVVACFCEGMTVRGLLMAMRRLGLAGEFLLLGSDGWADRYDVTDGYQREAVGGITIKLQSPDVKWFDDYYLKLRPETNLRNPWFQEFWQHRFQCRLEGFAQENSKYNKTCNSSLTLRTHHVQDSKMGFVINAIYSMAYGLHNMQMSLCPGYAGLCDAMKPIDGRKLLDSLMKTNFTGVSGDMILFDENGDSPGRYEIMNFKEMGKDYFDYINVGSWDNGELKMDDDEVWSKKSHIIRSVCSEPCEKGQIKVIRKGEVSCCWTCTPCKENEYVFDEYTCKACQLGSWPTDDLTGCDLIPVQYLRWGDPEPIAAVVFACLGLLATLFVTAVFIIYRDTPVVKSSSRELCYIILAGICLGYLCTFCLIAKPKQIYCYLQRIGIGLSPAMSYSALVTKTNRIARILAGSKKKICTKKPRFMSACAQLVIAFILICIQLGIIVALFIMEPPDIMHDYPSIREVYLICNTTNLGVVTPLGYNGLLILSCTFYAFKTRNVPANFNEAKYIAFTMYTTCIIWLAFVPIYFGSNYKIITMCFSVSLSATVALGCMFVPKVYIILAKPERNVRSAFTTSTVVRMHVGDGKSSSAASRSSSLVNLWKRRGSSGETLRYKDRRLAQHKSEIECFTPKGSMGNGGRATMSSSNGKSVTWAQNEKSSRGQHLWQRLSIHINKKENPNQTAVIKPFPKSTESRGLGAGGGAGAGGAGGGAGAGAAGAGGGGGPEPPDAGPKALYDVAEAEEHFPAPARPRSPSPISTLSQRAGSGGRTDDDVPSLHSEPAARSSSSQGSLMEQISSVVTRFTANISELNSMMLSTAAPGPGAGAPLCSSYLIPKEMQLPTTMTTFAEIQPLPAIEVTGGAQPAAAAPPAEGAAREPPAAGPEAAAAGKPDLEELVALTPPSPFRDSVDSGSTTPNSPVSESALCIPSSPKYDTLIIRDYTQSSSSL

Cc1ccc(C(=O)Nc2ncc3c(n2)CCN(C(=O)COc2cccc(Cl)c2)C3)cc1 [Example 189, N-{6-[2-(3-chloro-phenoxy)-acetyl]-5,6,7,8-tetrahydro-pyrido[4,3-d]pyrimidin-2-yl}-4-methyl-benzamide]
inhibition at 10 µM [1]: 39.5%
inhibition at 1 µM [2]: 46%
inhibition at 10 µM [3]: 53%

O=C(Nc1ncc2c(n1)CCN(C(=O)c1ccc(Cl)c(Cl)c1)C2)c1ccccc1F [Example 113, N-[6-(3,4-dichloro-benzoyl)-5,6,7,8-tetrahydro-pyrido[4,3-d]pyrimidin-2-yl]-2-fluoro-benzamide]
inhibition at 10 µM [1]: 31.3%
inhibition at 1 µM [2]: 45%
inhibition at 10 µM [3]: 67%

Cc1cc(C(=O)NC2CCc3nc(NC(=O)c4cccs4)ncc3C2)ccc1Br (stereo not drawn) [Example 115, thiophene-2-carboxylic acid [6-(4-bromo-3-methyl-benzoylamino)-5,6,7,8-tetrahydro-quinazolin-2-yl]-amide]
inhibition at 10 µM [1]: 34.3%
inhibition at 1 µM [2]: 56%
inhibition at 10 µM [3]: 49%
